Data taken from patent US20110054216A1, “NOVEL PROCESS FOR MAKING (2R)-(3-AMINO-2-FLUOROPROPYL)PHOSPHINIC ACID FORM A” (priority 2007, published 2011).

Experiment: isoelectric point of the zwitterion
Assay type: physicochemical
Conditions: pH at which it may be crystallised
Method: (2R)-(3-amino-2-fluoropropyl)phosphinic acid is a zwitterion, that may be crystallised at the isoelectric point, in this case approximately at a pH of 5.3. As the reaction is performed during acidic conditions, the protonated species of (2R)-(3-amino-2-fluoropropyl)phosphinic acid is formed. After completed reaction, the pH is adjusted to 5-6 by addition of a base in order to isolate (2R)-(3-amino-2-fluoropropyl)phosphinic acid crude as the zwitterion. The solution of (2R)-(3-amino-2-fluoropropyl)phosphinic acid works as a buffer solution and the amount of base added to reach the set pH-interval (5-6) is can be varied in the range of from 1.8-2.8 equivalents.

## NC[C@@H](F)C[PH](=O)O [(2R)-(3-amino-2-fluoropropyl)phosphinic acid]
  isoelectric point (pH): ~5.3
